In PubChem BioAssay AID256 (DTP/NCI, 2004):
Where “and” joins values, the source holds several entries; their conditions need not be identical. Identical values can stand only once. Inconclusive results and toxic doses are left out.

System: CD2F1 mice, L1210 leukemia ip, survival T/C
Assay: NCI In Vivo Anticancer Drug Screen. Data for tumor model L1210 Leukemia (intraperitoneal) in CD2F1 (CDF1) mice
Details: higher = longer survival
Method in brief: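 In this screen, transplantable tumors were grown in mice given either the compound or its vehicle. Results were expressed as the treated measurement relative to the control measurement.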

[1] = endpoint: mean survival time, dose: 100.0 mg/kg/injection, schedule: Q04DX002 (ip), vehicle: saline with Tween-80
[2] = endpoint: mean survival time, dose: 200.0 mg/kg/injection, schedule: Q04DX002 (ip), vehicle: saline with Tween-80
[3] = endpoint: mean survival time, dose: 100.0 mg/kg/injection, schedule: Q04DX003 (ip), vehicle: saline with Tween-80
[4] = endpoint: mean survival time, dose: 100.0 mg/kg/injection, schedule: Q01DX009 (ip), vehicle: saline with Tween-80
[5] = endpoint: mean survival time, dose: 200.0 mg/kg/injection, schedule: Q01DX009 (ip), vehicle: saline with Tween-80
[6] = endpoint: mean survival time, dose: 200.0 mg/kg/injection, schedule: Q04DX003 (ip), vehicle: saline with Tween-80
[7] = endpoint: mean survival time, dose: 400.0 mg/kg/injection, schedule: Q01DX009 (ip), vehicle: saline with Tween-80
[8] = endpoint: mean survival time, dose: 400.0 mg/kg/injection, schedule: Q04DX003 (ip), vehicle: saline with Tween-80
[9] = endpoint: mean survival time, dose: 100.0 mg/kg/injection, schedule: Q01DX009 (ip), vehicle: saline
[10] = endpoint: mean survival time, dose: 200.0 mg/kg/injection, schedule: Q01DX009 (ip), vehicle: saline
[11] = endpoint: mean survival time, dose: 400.0 mg/kg/injection, schedule: Q01DX009 (ip), vehicle: saline
[12] = endpoint: mean survival time, dose: 400.0 mg/kg/injection, schedule: Q04DX002 (ip), vehicle: saline with Tween-80
[13] = endpoint: mean survival time, dose: 50.0 mg/kg/injection, schedule: Q01DX009 (ip), vehicle: saline with Tween-80

O=c1[nH]cc(N=Cc2ccccc2F)c(=O)[nH]1.[Cl][Pt][Cl]
T/C (endpoint: mean survival time, dose: 3.13 mg/kg/injection, schedule: Q04DX003 (ip), vehicle: water): 97 % of control | T/C (endpoint: mean survival time, dose: 6.25 mg/kg/injection, schedule: Q04DX003 (ip), vehicle: water): 96 % of control | T/C (endpoint: mean survival time, dose: 12.5 mg/kg/injection, schedule: Q04DX003 (ip), vehicle: water): 97 % of control | T/C (endpoint: mean survival time, dose: 25.0 mg/kg/injection, schedule: Q04DX003 (ip), vehicle: water): 100 % of control | T/C (endpoint: mean survival time, dose: 50.0 mg/kg/injection, schedule: Q04DX003 (ip), vehicle: water): 97 % of control | T/C (endpoint: mean survival time, dose: 100.0 mg/kg/injection, schedule: Q04DX003 (ip), vehicle: water): 91 % of control | T/C (endpoint: mean survival time, dose: 200.0 mg/kg/injection, schedule: Q04DX003 (ip), vehicle: water): 100 % of control

NCCOc1ccc(-n2cnc3c(=O)[nH]c(N)nc32)cc1
T/C (endpoint: mean survival time, dose: 50.0 mg/kg/injection, schedule: Q04DX002 (ip), vehicle: saline with Tween-80): 93 % of control | T/C [1]: 96 % of control | T/C [2]: 104 % of control

CCN(CC)CCn1[nH]c2c3ccc(=O)cc3sc3c(NCCN)ccc1c32
T/C (endpoint: median survival time, dose: 1.5 mg/kg/injection, schedule: Q01DX009 (ip), vehicle: water): 168 % of control | T/C (endpoint: median survival time, dose: 1.56 mg/kg/injection, schedule: Q01DX005 (ip), vehicle: water): 154 % of control | T/C (endpoint: median survival time, dose: 3.0 mg/kg/injection, schedule: Q01DX005 (ip), vehicle: water): 183 % of control | T/C (endpoint: median survival time, dose: 3.0 mg/kg/injection, schedule: Q01DX009 (ip), vehicle: water): 180 % of control | T/C (endpoint: median survival time, dose: 3.12 mg/kg/injection, schedule: Q01DX005 (ip), vehicle: water): 192 % of control and 244 % of control | T/C (endpoint: median survival time, dose: 6.0 mg/kg/injection, schedule: Q01DX005 (ip), vehicle: water): 152 % of control | T/C (endpoint: median survival time, dose: 6.0 mg/kg/injection, schedule: Q01DX009 (ip), vehicle: water): 216 % of control | T/C (endpoint: median survival time, dose: 6.25 mg/kg/injection, schedule: Q01DX005 (ip), vehicle: water): 186 % of control and 357 % of control | T/C (endpoint: median survival time, dose: 12.0 mg/kg/injection, schedule: Q01DX005 (ip), vehicle: water): 95 % of control | T/C (endpoint: median survival time, dose: 12.0 mg/kg/injection, schedule: Q01DX009 (ip), vehicle: water): 216 % of control | T/C (endpoint: median survival time, dose: 12.5 mg/kg/injection, schedule: Q01DX005 (ip), vehicle: water): 231 % of control and 357 % of control

O=S(=O)(O)c1ccc(N=Nc2ccc(O)cc2)cc1
T/C (endpoint: mean survival time, dose: 25.0 mg/kg/injection, schedule: Q04DX003 (ip), vehicle: saline with Tween-80): 97 % of control | T/C (endpoint: mean survival time, dose: 50.0 mg/kg/injection, schedule: Q04DX003 (ip), vehicle: saline with Tween-80): 107 % of control | T/C [3]: 100 % of control

CCCCCCCCCCCCCCCCCCOCCCCCCCCCCCCCCCCCC
T/C [4]: 102 % of control | T/C [3]: 95 % of control | T/C [5]: 98 % of control | T/C [6]: 88 % of control | T/C [7]: 93 % of control | T/C [8]: 92 % of control

Cc1nc(/N=C(\N)Nc2ccc(Cl)c(Cl)c2)[nH]c(=O)c1Cc1ccccc1
T/C [3]: 95 % of control | T/C [6]: 88 % of control | T/C [8]: 102 % of control

Cc1ccc(S(=O)(=O)NC(=O)C2C(=O)CC3(CCCCC3)CC2=O)cc1
T/C (endpoint: median survival time, dose: 50.0 mg/kg/injection, schedule: Q01DX009 (ip), vehicle: Klucel (hydroxypropylcellulose) (HPC)): 100 % of control | T/C (endpoint: median survival time, dose: 100.0 mg/kg/injection, schedule: Q01DX009 (ip), vehicle: Klucel (hydroxypropylcellulose) (HPC)): 102 % of control

COC(=O)C(N)Cc1ccc(O)c(O)c1 (stereo not drawn)
T/C (endpoint: mean survival time, dose: 12.5 mg/kg/injection, schedule: Q01DX009 (ip), vehicle: saline): 101 % of control and 107 % of control | T/C (endpoint: mean survival time, dose: 25.0 mg/kg/injection, schedule: Q01DX009 (ip), vehicle: saline): 101 % of control and 107 % of control | T/C (endpoint: mean survival time, dose: 50.0 mg/kg/injection, schedule: Q01DX009 (ip), vehicle: saline): 95 % of control and 103 % of control | T/C [9]: 94 % of control and 103 % of control and 107 % of control | T/C [10]: 113 % of control and 101 % of control and 110 % of control | T/C [11]: 117 % of control and 110 % of control (2×) | T/C (endpoint: mean survival time, dose: 800.0 mg/kg/injection, schedule: Q01DX009 (ip), vehicle: saline): 116 % of control and 123 % of control

Nc1nc(N)nc(CBr)n1
T/C (endpoint: mean survival time, dose: 3.13 mg/kg/injection, schedule: Q01DX001 (ip), vehicle: Klucel (hydroxypropylcellulose) (HPC)): 98 % of control | T/C (endpoint: mean survival time, dose: 6.25 mg/kg/injection, schedule: Q01DX001 (ip), vehicle: Klucel (hydroxypropylcellulose) (HPC)): 98 % of control | T/C (endpoint: mean survival time, dose: 12.5 mg/kg/injection, schedule: Q01DX001 (ip), vehicle: Klucel (hydroxypropylcellulose) (HPC)): 88 % of control

C/C(=N\Nc1ccccc1)C1=C(O)C(Cc2ccccc2)NC1=O (stereo not drawn)
T/C [1]: 100 % of control | T/C [2]: 100 % of control | T/C [12]: 103 % of control

CCc1cc(CC)c(CC)c(Br)c1CC
T/C [13]: 98 % of control | T/C [4]: 108 % of control | T/C [3]: 98 % of control | T/C [6]: 101 % of control

COc1ccc2c(c1)CCN=C2CCN1C(=O)CCC1=O
T/C (endpoint: mean survival time, dose: 100.0 mg/kg/injection, schedule: Q04DX003 (ip), vehicle: saline): 101 % of control | T/C (endpoint: mean survival time, dose: 200.0 mg/kg/injection, schedule: Q04DX003 (ip), vehicle: saline): 98 % of control

N#CC12C(=N)CCC1C1CC2C2C3C=CC(C3)C12 (stereo not drawn)
T/C [3]: 96 % of control | T/C [6]: 96 % of control | T/C [8]: 95 % of control

OCC1OC(n2cnc3c4ccccc4ccc32)C(O)C1O (stereo not drawn)
T/C (endpoint: median survival time, dose: 10.0 mg/kg/injection, schedule: Q01DX005 (ip), vehicle: saline with Tween-80): 110 % of control | T/C (endpoint: median survival time, dose: 16.25 mg/kg/injection, schedule: Q01DX005 (ip), vehicle: saline with Tween-80): 98 % of control | T/C (endpoint: median survival time, dose: 20.0 mg/kg/injection, schedule: Q01DX005 (ip), vehicle: saline with Tween-80): 103 % of control | T/C (endpoint: median survival time, dose: 32.5 mg/kg/injection, schedule: Q01DX005 (ip), vehicle: saline with Tween-80): 100 % of control | T/C (endpoint: median survival time, dose: 40.0 mg/kg/injection, schedule: Q01DX005 (ip), vehicle: saline with Tween-80): 97 % of control | T/C (endpoint: median survival time, dose: 65.0 mg/kg/injection, schedule: Q01DX005 (ip), vehicle: saline with Tween-80): 107 % of control | T/C (endpoint: median survival time, dose: 80.0 mg/kg/injection, schedule: Q01DX005 (ip), vehicle: saline with Tween-80): 103 % of control | T/C (endpoint: median survival time, dose: 130.0 mg/kg/injection, schedule: Q01DX005 (ip), vehicle: saline with Tween-80): 97 % of control

CNCCOC(=O)/C=C/c1ccccc1
T/C [9]: 98 % of control | T/C [10]: 95 % of control | T/C [11]: 95 % of control

N#Cc1ccccc1C(C#N)c1ccc([N+](=O)[O-])cc1 (stereo not drawn)
T/C (endpoint: mean survival time, dose: 50.0 mg/kg/injection, schedule: Q04DX003 (ip), vehicle: DMSO): 93 % of control | T/C (endpoint: mean survival time, dose: 100.0 mg/kg/injection, schedule: Q04DX003 (ip), vehicle: DMSO): 98 % of control | T/C (endpoint: mean survival time, dose: 200.0 mg/kg/injection, schedule: Q04DX003 (ip), vehicle: DMSO): 93 % of control | T/C (endpoint: mean survival time, dose: 400.0 mg/kg/injection, schedule: Q04DX003 (ip), vehicle: DMSO): 96 % of control

CC(=O)CCCOC(C)=O
T/C (endpoint: mean survival time, dose: 100.0 mg/kg/injection, schedule: Q01DX001 (ip), vehicle: saline): 103 % of control | T/C (endpoint: mean survival time, dose: 200.0 mg/kg/injection, schedule: Q01DX001 (ip), vehicle: saline): 100 % of control | T/C (endpoint: mean survival time, dose: 400.0 mg/kg/injection, schedule: Q01DX001 (ip), vehicle: saline): 100 % of control

Cc1cnccc1N=Nc1ccc(N(C)C)cc1
T/C [4]: 117 % of control | T/C [5]: 102 % of control | T/C [7]: 96 % of control

CCCCCCCCCCCCCCC[N+]1(C)CCSCC1
T/C (endpoint: mean survival time, dose: 25.0 mg/kg/injection, schedule: Q01DX001 (ip), vehicle: saline with Tween-80): 100 % of control | T/C (endpoint: mean survival time, dose: 50.0 mg/kg/injection, schedule: Q01DX001 (ip), vehicle: saline with Tween-80): 95 % of control

COc1ccc(COc2ccc([N+](=O)[O-])cc2)cc1
T/C [1]: 87 % of control | T/C [12]: 87 % of control

C/C=C(/c1ccccc1)c1ccc(N(C)C)cc1
T/C [3]: 98 % of control | T/C [6]: 91 % of control | T/C [8]: 91 % of control

Nc1ncnc2nc(-c3cccc(CNC(=O)c4ccccc4S(=O)(=O)F)c3)[nH]c12
T/C (endpoint: mean survival time, dose: 100.0 mg/kg/injection, schedule: Q01DX001 (ip), vehicle: saline with Tween-80): 87 % of control | T/C (endpoint: mean survival time, dose: 400.0 mg/kg/injection, schedule: Q01DX001 (ip), vehicle: saline with Tween-80): 87 % of control

O=C(Nc1ccccc1)Nc1nnnc2ccccc12
T/C [3]: 101 % of control | T/C [6]: 90 % of control | T/C [8]: 101 % of control

CCCC/C=C\C1CCCCC1C (stereo not drawn)
T/C [13]: 87 % of control | T/C [4]: 96 % of control | T/C [5]: 104 % of control
